Experimental data as given in patent publication US12171793B2, “Method of activating lactic acid bacteria” (INFANT BACTERIAL THERAPEUTICS AB, priority 2015, dated 2024).
Entries after “also recorded” stand apart in the source; their conditions may differ.

Tests used:
[1] = system: Lactobacillus reuteri DSM 17938; assay: Evaluation of activation time by turbidity (BioScreen) in simulated intestinal medium STMmod 3; format: cell-based; conditions: STMmod 3, 37° C., OD 600 nm; with citrate compared to without citrate; FIG. 3
Procedure: The activation time in simulated intestinal medium (STMmod 3, see Table 4) of the two variants of lyophilized DSM 17938 (C and N) were analyzed using a computer-controlled incubator/reader/shaker (BioScreen C MBR) that measure the change in turbidity over time. The medium STMmod 3 was used to mimic the conditions in the intestine. To each well 200 μl of STMmod 3 was added. Thereafter different volumes (100, 60, 40, 30, 25 μl) of bacterial suspension (vials with lyophilized bacteria suspended in 1 ml dH2O) were added. Volumes were adjusted to 300 μl with dH2O. The analysis of each inoculation volume was done in triplicates. The BioScreen analysis was run at 37° C. for 24 hours with a 15 min interval between measurements (OD 600 nm), with the addition of a 10 s shaking step before each measuring point. [table]

[2] = system: Lactobacillus reuteri DSM 17938; assay: Growth of Lactobacillus reuteri in simulated intestinal substrate (SIS); format: cell-based; conditions: FIG. 1; GOS or glucose plus electron acceptor, 15 mM of each; 16 h at 37° C., anaerobic
Procedure: The growth of L. reuteri DSM 17938 on different combinations of sugar and electron acceptors was evaluated in “Simulated intestinal substrate” (SIS). [table] Lactobacillus reuteri cells of strain DSM 17938 were first grown over night in MRS broth (Oxoid) at 37° C. After washing in phosphate-buffered saline (PBS) the bacteria were diluted 10 × in PBS. 10 μl of bacterial suspension was thereafter inoculated to 10 ml SIS (with addition of sugar and electron acceptor), and the bacteria were cultivated for 16 h at 37° C. during anaerobic conditions and no shaking. The growth of Lactobacillus reuteri DSM 17938 in SIS with lactose and citrate as the sugar-electron acceptor pair is evaluated in the same way as described above for GOS and citrate as the electron acceptor. The above described substrate (SIS) is used.

## O=C(O)CC(O)(CC(=O)O)C(=O)O [Citrate]
[1]
  time to reach a 3% increase in OD (activation time): shorter time; also recorded: shorten the activation time
[2]
  growth of Lactobacillus reuteri DSM 17938 in simulated intestinal substrate: highest effect
